Records with an inconclusive call do not appear.
Target: Sodium- and chloride-dependent glycine transporter 1 (Homo sapiens) (UniProt P48067)
Test: PubChem AID 1794809
Settings: HEK-293 SLC6A9 OE, FLIPR membrane potential dye

Sodium- and chloride-dependent glycine transporter 1 (Homo sapiens), sequence (P48067 whole entry, looked up): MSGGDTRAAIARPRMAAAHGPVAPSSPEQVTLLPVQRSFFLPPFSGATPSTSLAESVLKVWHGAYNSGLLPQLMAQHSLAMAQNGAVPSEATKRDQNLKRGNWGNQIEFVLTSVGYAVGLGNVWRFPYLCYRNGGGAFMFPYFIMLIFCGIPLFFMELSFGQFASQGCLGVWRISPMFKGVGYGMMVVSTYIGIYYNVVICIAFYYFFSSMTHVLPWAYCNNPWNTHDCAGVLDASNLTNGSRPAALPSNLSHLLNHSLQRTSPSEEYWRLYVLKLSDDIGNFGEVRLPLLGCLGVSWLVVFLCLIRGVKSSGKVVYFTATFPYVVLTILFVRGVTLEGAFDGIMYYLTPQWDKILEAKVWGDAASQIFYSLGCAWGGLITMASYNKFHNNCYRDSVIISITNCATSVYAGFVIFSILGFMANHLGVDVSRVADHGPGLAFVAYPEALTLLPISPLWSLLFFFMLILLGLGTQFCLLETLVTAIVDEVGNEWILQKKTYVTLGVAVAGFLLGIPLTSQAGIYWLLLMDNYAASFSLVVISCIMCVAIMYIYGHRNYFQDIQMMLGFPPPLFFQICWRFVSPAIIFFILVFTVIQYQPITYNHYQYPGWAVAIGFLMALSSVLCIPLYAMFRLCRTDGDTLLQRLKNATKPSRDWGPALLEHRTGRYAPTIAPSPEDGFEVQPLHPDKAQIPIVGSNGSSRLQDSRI

## NCC(=O)O
  EC50: 106 µM
